Earlier results, collected in patent US6200602A, “Composition for enhanced uptake of polar drugs from the colon” (priority 1995, dated 2001).

Columns and labels:
[1] = oral / gastrointestinal tract
[2] = rat intestine; sodium caprate and sodium glycocholate as enhancers
[3] = absorption enhancer in the gastrointestinal tract
[4] = literature knowledge

| absorption when dosed orally [1] | Compound | other results |
| --- | --- | --- |
| poor or erratic absorption | O=C(O)c1cc(=O)c2c(OCC(O)COc3cccc4oc(C(=O)O)cc(=O)c34)cccc2o1 [sodium cromoglycate] |  |
|  | insulin: polypeptide drug | preferred site for insulin absorption [2]: the ileum was the most preferred site for insulin absorption |
|  | C[C@H](CCC(=O)O)[C@H]1CC[C@H]2[C@@H]3CC[C@@H]4C[C@H](O)CC[C@]4(C)[C@H]3C[C@H](O)[C@]12C [sodium deoxycholate] | side effect and toxicity [3]: associated with potential side effect (diarrhoea) and toxicity; absorption promoting effect [4]: known to act as an absorption enhancer in the gastrointestinal tract |
| poor or erratic absorption | CNC(=C[N+](=O)[O-])NCCSCc1ccc(CN(C)C)o1 [ranitidine] |  |
| poor or erratic absorption | O=P(O)(O)C(Cl)(Cl)P(=O)(O)O [clodronate] |  |
|  | CCCCCCCCCC(=O)[O-].[Na+] [sodium caprate] | absorption promoting effect [4]: can act as an absorption promoting agent |

| Compound | absorption when dosed orally [1] | other results |
| --- | --- | --- |
| C[C@H](CS)C(=O)N1CCC[C@H]1C(=O)O [captopril] | poor or erratic absorption |  |
| CN/C(=N/CCSCc1nc[nH]c1C)NC#N [cimetidine] | poor or erratic absorption |  |
